This note sets out measurements from patent publication US10780090B2, “Heteroaryl compounds useful as inhibitors of SUMO activating enzyme” (Millennium Pharmaceuticals, Inc., priority 2014, dated 2020).

The target in this assay is recombinant human SAE enzyme (Homo sapiens (Human), UniProt Q9UBT2). The assay is described as follows: SAE HTRF enzyme assay. The note with it: for Percent Inhibition: SAE inhibition at compound concentration 0.111 μM; for IC50: SAE inhibition, class symbols, legend in nM. In kind it is biochemical. Put shortly:
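HTRF read-out using Eu-cryptate anti-Flag and allophycocyanin anti-GST antibodies, added with EDTA stop buffer and read after 2 h at 24 °C. The preceding reaction ran 105 min at 24 °C: 0.11 nM recombinant SAE, 0.5 μM ATP, Sumo-Flag, Ubc9-GST, pH 7.5. Values given as single-concentration inhibition or IC50.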
(Time-resolved FRET reads energy transfer from a long-lived donor to a nearby acceptor.)

A word on the IC50: it is the midpoint of a concentration-inhibition curve.

recombinant human SAE enzyme, sequence (Q9UBT2 whole entry): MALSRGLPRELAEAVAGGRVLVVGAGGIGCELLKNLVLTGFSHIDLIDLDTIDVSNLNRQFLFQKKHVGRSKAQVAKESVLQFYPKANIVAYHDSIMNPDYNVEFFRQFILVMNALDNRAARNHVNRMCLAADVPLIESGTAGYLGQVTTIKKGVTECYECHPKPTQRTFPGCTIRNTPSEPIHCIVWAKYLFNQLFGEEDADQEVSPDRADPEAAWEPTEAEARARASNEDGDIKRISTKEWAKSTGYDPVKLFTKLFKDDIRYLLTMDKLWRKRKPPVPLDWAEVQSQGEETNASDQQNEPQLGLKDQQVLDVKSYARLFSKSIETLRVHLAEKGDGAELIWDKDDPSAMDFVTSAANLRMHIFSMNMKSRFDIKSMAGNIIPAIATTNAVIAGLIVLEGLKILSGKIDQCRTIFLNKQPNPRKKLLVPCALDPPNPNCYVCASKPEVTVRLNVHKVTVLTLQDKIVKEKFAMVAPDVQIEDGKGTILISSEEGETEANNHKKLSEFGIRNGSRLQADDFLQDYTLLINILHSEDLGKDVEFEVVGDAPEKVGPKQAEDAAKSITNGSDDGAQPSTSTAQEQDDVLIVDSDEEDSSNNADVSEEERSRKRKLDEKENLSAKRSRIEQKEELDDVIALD
recombinant human SAE enzyme, sequence (Q9UBE0 whole entry partner): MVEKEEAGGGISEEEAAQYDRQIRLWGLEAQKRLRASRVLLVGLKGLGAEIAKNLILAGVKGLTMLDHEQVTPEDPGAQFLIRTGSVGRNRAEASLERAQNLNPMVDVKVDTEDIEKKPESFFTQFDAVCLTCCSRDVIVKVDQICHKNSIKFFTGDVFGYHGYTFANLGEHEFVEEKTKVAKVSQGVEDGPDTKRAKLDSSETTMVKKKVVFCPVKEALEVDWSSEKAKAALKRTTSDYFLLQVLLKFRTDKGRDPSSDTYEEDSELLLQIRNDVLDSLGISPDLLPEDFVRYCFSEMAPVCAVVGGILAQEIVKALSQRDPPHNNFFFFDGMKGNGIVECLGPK

`NS(=O)(=O)OC[C@H]1C[C@@H](Nc2ncncc2C(=O)c2cc([C@@H]3OCC4(CC4)c4ccccc43)cs2)C[C@@H]1O` (single isomer, unassigned) [I-281a, [(1R,2S,4R)-2-hydroxy-4-{[5-({4-[(1′R)-1′H-spiro[cyclopropane-1,4′-isochromen]-1′-yl]-2-thienyl}carbonyl)pyrimidin-4-yl]amino}cyclopentyl]methyl sulfamate or [(1R,2S,4R)-2-hydroxy-4-{[5-({4-[(1′S)-1′H-spiro[cyclopropane-1,4′-isochromen]-1′-yl]-2-thienyl}carbonyl)pyrimidin-4-yl]amino}cyclopentyl]methyl sulfamate]: the “Percent Inhibition” value was 74% and the IC50 lay in the range of 10 to 100 nM.

For `NS(=O)(=O)OC[C@H]1C[C@@H](Nc2ncncc2C(=O)c2cc([C@@H]3OCC4(CC4)c4ccccc43)cs2)C[C@@H]1O` (single isomer, unassigned) [I-281b, [(1R,2S,4R)-2-hydroxy-4-{[5-({4-[(1′R)-1′H-spiro[cyclopropane-1,4′-isochromen]-1′-yl]-2-thienyl}carbonyl)pyrimidin-4-yl]amino}cyclopentyl]methyl sulfamate or [(1R,2S,4R)-2-hydroxy-4-{[5-({4-[(1′S)-1′H-spiro[cyclopropane-1,4′-isochromen]-1′-yl]-2-thienyl}carbonyl)pyrimidin-4-yl]amino}cyclopentyl]methyl sulfamate], the “Percent Inhibition” value came out at 99% and the IC50 is under 10 nM.

For `NS(=O)(=O)OC[C@H]1C[C@@H](Nc2ncncc2C(=O)c2cc([C@@H]3OCCc4ccc(Cl)cc43)c(Cl)s2)C[C@@H]1O` (single isomer, unassigned) [I-282a, [(1R,2S,4R)-4-{[5-({5-chloro-4-[(1R)-7-chloro-3,4-dihydro-1H-isochromen-1-yl]-2-thienyl}carbonyl)pyrimidin-4-yl]amino}-2-hydroxycyclopentyl]methyl sulfamate or [(1R,2S,4R)-4-{[5-({5-chloro-4-[(1S)-7-chloro-3,4-dihydro-1H-isochromen-1-yl]-2-thienyl}carbonyl)pyrimidin-4-yl]amino}-2-hydroxycyclopentyl]methyl sulfamate], the “Percent Inhibition” value came to 37% and the IC50 lay in the range of 100 to 1000 nM.

Regarding `NS(=O)(=O)OC[C@H]1C[C@@H](Nc2ncncc2C(=O)c2cc([C@@H]3OCCc4ccc(Cl)cc43)c(Cl)s2)C[C@@H]1O` (single isomer, unassigned) [I-282b, [(1R,2S,4R)-4-{[5-({5-chloro-4-[(1R)-7-chloro-3,4-dihydro-1H-isochromen-1-yl]-2-thienyl}carbonyl)pyrimidin-4-yl]amino}-2-hydroxycyclopentyl]methyl sulfamate or [(1R,2S,4R)-4-{[5-({5-chloro-4-[(1S)-7-chloro-3,4-dihydro-1H-isochromen-1-yl]-2-thienyl}carbonyl)pyrimidin-4-yl]amino}-2-hydroxycyclopentyl]methyl sulfamate], the “Percent Inhibition” value is on record as 102% and the 50% inhibitory concentration (IC50) is under 10 nM.

Turning to `NS(=O)(=O)OC[C@H]1C[C@@H](Nc2ncncc2C(=O)c2cc([C@@H]3NCCc4ccccc43)cs2)C[C@@H]1O` (single isomer, unassigned) [I-283a, [(1R,2S,4R)-2-hydroxy-4-{[5-({4-[(1R)-1,2,3,4-tetrahydroisoquinolin-1-yl]-2-thienyl}carbonyl)pyrimidin-4-yl]amino}cyclopentyl]methyl sulfamate or [(1R,2S,4R)-2-hydroxy-4-{[5-({4-[(1S)-1,2,3,4-tetrahydroisoquinolin-1-yl]-2-thienyl}carbonyl)pyrimidin-4-yl]amino}cyclopentyl]methyl sulfamate], the “Percent Inhibition” value worked out at 99% and the IC50 is under 10 nM.

For the molecule `NS(=O)(=O)OC[C@H]1C[C@@H](Nc2ncncc2C(=O)c2cc([C@@H]3NCCc4ccccc43)cs2)C[C@@H]1O` (single isomer, unassigned) [I-283b, [(1R,2S,4R)-2-hydroxy-4-{[5-({4-[(1R)-1,2,3,4-tetrahydroisoquinolin-1-yl]-2-thienyl}carbonyl)pyrimidin-4-yl]amino}cyclopentyl]methyl sulfamate or [(1R,2S,4R)-2-hydroxy-4-{[5-({4-[(1S)-1,2,3,4-tetrahydroisoquinolin-1-yl]-2-thienyl}carbonyl)pyrimidin-4-yl]amino}cyclopentyl]methyl sulfamate], the “Percent Inhibition” value came out at 93% and the IC50 was 10 to 100 nM.

Consider `CN1Cc2ccc(Cl)cc2[C@@H]1c1cc(C(=O)c2cncnc2N[C@@H]2C[C@H](COS(N)(=O)=O)[C@@H](O)C2)sc1Cl` (single isomer, unassigned) [I-284a, [(1R,2S,4R)-4-{[5-({5-chloro-4-[(1R)-6-chloro-2-methyl-2,3-dihydro-1H-isoindol-1-yl]-2-thienyl}carbonyl)pyrimidin-4-yl]amino}-2-hydroxycyclopentyl]methyl sulfamate or [(1R,2S,4R)-4-{[5-({5-chloro-4-[(1S)-6-chloro-2-methyl-2,3-dihydro-1H-isoindol-1-yl]-2-thienyl}carbonyl)pyrimidin-4-yl]amino}-2-hydroxycyclopentyl]methyl sulfamate], for which the “Percent Inhibition” value is recorded as 49% and the IC50 was 100 to 1000 nM.

On to `CN1Cc2ccc(Cl)cc2[C@@H]1c1cc(C(=O)c2cncnc2N[C@@H]2C[C@H](COS(N)(=O)=O)[C@@H](O)C2)sc1Cl` (single isomer, unassigned) [I-284b, [(1R,2S,4R)-4-{[5-({5-chloro-4-[(1R)-6-chloro-2-methyl-2,3-dihydro-1H-isoindol-1-yl]-2-thienyl}carbonyl)pyrimidin-4-yl]amino}-2-hydroxycyclopentyl]methyl sulfamate or [(1R,2S,4R)-4-{[5-({5-chloro-4-[(1S)-6-chloro-2-methyl-2,3-dihydro-1H-isoindol-1-yl]-2-thienyl}carbonyl)pyrimidin-4-yl]amino}-2-hydroxycyclopentyl]methyl sulfamate], for which the “Percent Inhibition” value came to 99% and the IC50 was under 10 nM.

Consider `Cc1sc(C(=O)c2cncnc2N[C@@H]2C[C@H](COS(N)(=O)=O)[C@@H](O)C2)cc1[C@@H]1OCCc2cccnc21` (single isomer, unassigned) [I-285a, [(1R,2S,4R)-4-{[5-({4-[(8S)-5,8-dihydro-6H-pyrano[3,4-b]pyridin-8-yl]-5-methyl-2-thienyl}carbonyl)pyrimidin-4-yl]amino}-2-hydroxycyclopentyl]methyl sulfamate or [(1R,2S,4R)-4-{[5-({4-[(8R)-5,8-dihydro-6H-pyrano[3,4-b]pyridin-8-yl]-5-methyl-2-thienyl}carbonyl)pyrimidin-4-yl]amino}-2-hydroxycyclopentyl]methyl sulfamate], for which the “Percent Inhibition” value was found to be 101% and the IC50 is under 10 nM.

`Cc1sc(C(=O)c2cncnc2N[C@@H]2C[C@H](COS(N)(=O)=O)[C@@H](O)C2)cc1[C@@H]1OCCc2cccnc21` (single isomer, unassigned) [I-285b, [(1R,2S,4R)-4-{[5-({4-[(8S)-5,8-dihydro-6H-pyrano[3,4-b]pyridin-8-yl]-5-methyl-2-thienyl}carbonyl)pyrimidin-4-yl]amino}-2-hydroxycyclopentyl]methyl sulfamate or [(1R,2S,4R)-4-{[5-({4-[(8R)-5,8-dihydro-6H-pyrano[3,4-b]pyridin-8-yl]-5-methyl-2-thienyl}carbonyl)pyrimidin-4-yl]amino}-2-hydroxycyclopentyl]methyl sulfamate]: the “Percent Inhibition” value is 44% and the IC50 is 100 to 1000 nM.
